Series [1] can be described thus: in vivo. The settings on record: rat, plasma, po, 10 mg/kg.
Series [2] can be described thus: in vivo. As to conditions: rat, brain, po, 10 mg/kg.
The nature of series [3]: in vivo. As to conditions: rat, cerebrospinal fluid, po, 10 mg/kg.

As to `CC1(C)CN2CCNCc3ccc(F)c1c32`, the concentration at 1 h in “in vivo [1]” amounted to 608 ng/mL; in “in vivo [2]”, 8860 ng/g; in the series “in vivo [3]”, 170 ng/mL.

The values are drawn from ChEMBL document CHEMBL4616608, “Discovery of a lead series of potent benzodiazepine 5-HT2C receptor agonists with high selectivity in functional and binding assays” (Bioorg Med Chem Lett, 2020).
